This is an account of results in patent publication US7803930B2, “Antisense modulation of apolipoprotein B-expression” (Isis Pharmaceuticals, Inc., priority 2002, dated 2010).

In the oligonucleotide strings, read from the 5' end, every base follows the letter of its sugar. An asterisk marks phosphorothioate; unmarked linkages are phosphodiester. Other units and linkages are bracketed, terminal groups are in braces. A string of capitals states the bases alone. e = 2'-O-(2-methoxyethyl) (MOE); [5mC] = 5-methylcytosine; d = 2'-deoxy (DNA)

For the series, the system named is human apolipoprotein B mRNA. As to the kind of experiment: Inhibition of human apolipoprotein B mRNA levels in HepG2 cells, quantitative real-time PCR. The note with it: HepG2 cells; human apolipoprotein B mRNA; oligonucleotides targeting genomic sequence SEQ ID NO 334; averages from two experiments. It is filed as cell-based. Summed up:
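HepG2 cells at 80% confluency were transfected with antisense oligonucleotide using 3.75 μg/mL Lipofectin in Opti-MEM for 4-7 h and harvested 16-24 h after treatment. Apolipoprotein B mRNA was measured by real-time RT-PCR and normalized to GAPDH or RiboGreen total RNA. Percent inhibition came from untreated-control standard curves.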

“301050 (eA*eT*eT*eT*e[5mC]*d[5mC]*dT*d[5mC]*dT*dT*d[5mC]*dT*dG*dT*dA*eA*eG*eA*e[5mC]*eA; antisense) [compound 301050]”: the “% INHIB” value is given as 22%.

Consider “301051 (eG*eA*eT*eG*e[5mC]*d[5mC]*dT*dT*dA*d[5mC]*dT*dT*dG*dG*dA*e[5mC]*eA*eG*eA*e[5mC]; antisense) [compound 301051]”, for which the “% INHIB” value was determined as 27%. Consider “301052 (eA*eG*eA*eA*eA*dT*dA*dG*d[5mC]*dT*d[5mC]*dT*d[5mC]*d[5mC]*d[5mC]*eA*eA*eG*eG*eA; antisense) [compound 301052]”, for which the “% INHIB” value was 13%. Then “301053 (eG*eT*e[5mC]*eG*e[5mC]*dA*dT*d[5mC]*dT*dT*d[5mC]*dT*dA*dA*d[5mC]*eG*eT*eG*eG*eG; antisense) [compound 301053]”, with 45%. In the case of “301054 (eT*e[5mC]*e[5mC]*eT*e[5mC]*d[5mC]*dA*dT*dA*d[5mC]*d[5mC]*dT*dT*dG*d[5mC]*eA*eG*eT*eT*eG; antisense) [compound 301054]” it was 0%.

Regarding “301055 (eT*eG*eG*e[5mC]*eT*d[5mC]*dA*dT*dG*dT*d[5mC]*dT*dA*d[5mC]*d[5mC]*eA*eT*eA*eT*eT; antisense) [compound 301055]”, the “% INHIB” value is 49%. As to “301056 (e[5mC]*eA*eG*eT*eT*dG*dA*dA*dA*dT*dG*d[5mC]*dA*dG*d[5mC]*eT*eA*eA*eT*eG; antisense) [compound 301056]”, the “% INHIB” value is on record as 35%. As for “301057 (eT*eG*e[5mC]*eA*eG*dA*d[5mC]*dT*dA*dG*dG*dA*dG*dT*dG*eA*eA*eA*eG*eT; antisense) [compound 301057]”, the “% INHIB” value is 30%. Take “301058 (eA*eG*eG*eA*eG*dG*dA*dT*dG*dT*d[5mC]*d[5mC]*dT*dT*dT*eT*eA*eT*eT*eG; antisense) [compound 301058]”: the “% INHIB” value worked out at 27%. For the substance “301059 (eA*eT*e[5mC]*eA*eG*dA*dG*d[5mC]*dA*d[5mC]*d[5mC]*dA*dA*dA*dG*eG*eG*eA*eA*eT; antisense) [compound 301059]”, the “% INHIB” value was determined as 12%. For “301060 (e[5mC]*e[5mC]*eA*eG*e[5mC]*dT*d[5mC]*dA*dA*d[5mC]*d[5mC]*dT*dG*dA*dG*eA*eA*eT*eT*e[5mC]; antisense) [compound 301060]”, the “% INHIB” value was determined as 17%.

For the substance “301061 (e[5mC]*eA*eT*eG*eA*d[5mC]*dT*dT*dA*d[5mC]*d[5mC]*dT*dG*dG*dA*e[5mC]*eA*eT*eG*eG; antisense) [compound 301061]”, the “% INHIB” value is recorded as 52%. Then “301062 (e[5mC]*e[5mC]*eT*e[5mC]*eA*dG*d[5mC]*dG*dG*dA*d[5mC]*dA*d[5mC]*dA*d[5mC]*eA*e[5mC]*eA*e[5mC]*eA; antisense) [compound 301062]”, with 21%. Then “301063 (eG*eT*e[5mC]*eA*e[5mC]*dA*dT*d[5mC]*d[5mC]*dG*dT*dG*d[5mC]*d[5mC]*dT*eG*eG*eT*eG*e[5mC]; antisense) [compound 301063]”, with 41%; and “301064 (e[5mC]*eA*eG*eT*eG*d[5mC]*d[5mC]*dT*d[5mC]*dT*dG*dG*dG*dA*d[5mC]*e[5mC]*e[5mC]*e[5mC]*eA*e[5mC]; antisense) [compound 301064]”, with 60%. As to “301065 (eA*eG*e[5mC]*eT*eG*d[5mC]*dA*dG*dT*dG*dG*d[5mC]*d[5mC]*dG*dA*eT*e[5mC]*eA*eG*e[5mC]; antisense) [compound 301065]”, the “% INHIB” value was 50%. On to “301066 (eG*eA*e[5mC]*e[5mC]*eT*d[5mC]*d[5mC]*d[5mC]*d[5mC]*dA*dG*d[5mC]*d[5mC]*dA*d[5mC]*eG*eT*eG*eG*eA; antisense) [compound 301066]”, for which the “% INHIB” value came out at 61%. In the case of “301067 (eT*e[5mC]*eT*eG*eA*dT*d[5mC]*dA*d[5mC]*d[5mC]*dA*dT*dA*d[5mC]*dA*eT*eT*eA*e[5mC]*eA; antisense) [compound 301067]” it was 45%; in that of “301068 (eA*eT*eT*eT*e[5mC]*d[5mC]*d[5mC]*dA*d[5mC]*dT*dG*dG*dG*dT*dA*e[5mC]*eT*e[5mC]*eT*e[5mC]; antisense) [compound 301068]”, 44%; in that of “301069 (eG*eG*e[5mC]*eT*eG*dA*dA*dG*d[5mC]*d[5mC]*d[5mC]*dA*dT*dG*d[5mC]*eT*eG*eA*e[5mC]*eT; antisense) [compound 301069]”, 44%. Then “301070 (eG*eT*eT*eG*eG*dA*d[5mC]*dA*dG*dT*d[5mC]*dA*dT*dT*d[5mC]*eT*eT*eT*eT*eG; antisense) [compound 301070]”, with 38%; and “301071 (e[5mC]*eA*e[5mC]*eT*eT*dG*dT*dT*dG*dG*dA*d[5mC]*dA*dG*dT*e[5mC]*eA*eT*eT*e[5mC]; antisense) [compound 301071]”, with 48%. Then “301072 (eA*eT*eT*eT*eT*dA*dA*dA*dT*dT*dA*d[5mC]*dA*dG*dT*eA*eG*eA*eT*eA; antisense) [compound 301072]”, with 43%; and “301073 (e[5mC]*eT*eG*eT*eT*d[5mC]*dT*d[5mC]*d[5mC]*dA*d[5mC]*d[5mC]*d[5mC]*dA*dT*eA*eT*e[5mC]*eA*eG; antisense) [compound 301073]”, with 37%; and “301074 (eG*eA*eG*e[5mC]*eT*d[5mC]*dA*dT*dA*d[5mC]*d[5mC]*dT*dG*dT*d[5mC]*e[5mC]*e[5mC]*eA*eG*eA; antisense) [compound 301074]”, with 75%. For the substance “301075 (eT*eT*e[5mC]*eA*eA*dG*dG*dG*d[5mC]*d[5mC]*dA*d[5mC]*dT*dG*d[5mC]*eT*eA*eT*e[5mC]*eA; antisense) [compound 301075]”, the “% INHIB” value was 52%. Regarding “301076 (e[5mC]*e[5mC]*eA*eG*eT*dA*dT*dT*dT*d[5mC]*dA*d[5mC]*dG*d[5mC]*d[5mC]*eA*eA*eT*e[5mC]*e[5mC]; antisense) [compound 301076]”, the “% INHIB” value was 36%.

Take “301077 (eG*eG*e[5mC]*eA*eG*dG*dA*dG*dG*dA*dA*d[5mC]*d[5mC]*dT*d[5mC]*eG*eG*eG*e[5mC]*eA; antisense) [compound 301077]”: the “% INHIB” value was 55%.

Take “301078 (eT*eT*eT*eT*eA*dA*dA*dA*dT*dT*dA*dG*dA*d[5mC]*d[5mC]*e[5mC]*eA*eA*e[5mC]*e[5mC]; antisense) [compound 301078]”: the “% INHIB” value was determined as 22%. For the substance “301079 (eT*eG*eA*e[5mC]*eT*dG*dT*dT*dT*dT*dA*dA*dA*dA*dT*eT*eA*eG*eA*e[5mC]; antisense) [compound 301079]”, the “% INHIB” value is on record as 20%. Then “301080 (e[5mC]*e[5mC]*e[5mC]*eA*eG*d[5mC]*dA*dA*dA*d[5mC]*dA*d[5mC]*dA*dG*dG*eT*eG*eA*eA*eG; antisense) [compound 301080]”, with 25%; and “301081 (eG*eA*eG*eT*eG*dT*dG*dG*dT*d[5mC]*dT*dT*dG*d[5mC]*dT*eA*eG*eT*eG*e[5mC]; antisense) [compound 301081]”, with 46%; and “301082 (antisense e[5mC]*eT*eA*eT*eG*d[5mC]*dA*dG*dA*dG*dT*dG*dT*dG*dG*eT*e[5mC]*eT*eT*eG) [compound 301082]”, with 41%.
